Source: US20240225915A1, “COMPOSITIONS FOR FIGHTING MALODORS” (SYMRISE AG, priority 2021, published 2024)

Assay: Evaluation of malodor neutralization: sniffer box evaluation by 12 expert panelists
Conditions: arithmetic mean of panelist ratings; line scale from no odor (0) to strongest imaginable (10), moderate (5) = unperfumed malodor reference; 1 g water added to each sample
Description: The object of the following experiments has been the evaluation of performance against feminine hygiene malodor out of sniffer boxes. For this purpose 12 expert panelists evaluated the samples from sniffer boxes. The malodor was placed on different cotton balls and put into an aroma-tight air bag with a volume of […] together with the raw materials placed in a petri dish. Perfume- and malodor intensities were evaluated on a continuous line scale with ten labels ranging from “no odor” (0) to “strongest imaginable” (10) odor with “moderate” (5) being the unperfumed malodor reference sample. Note that panelists only see the verbal anchors not the numbers (0-10) while rating. Results are arithmetic means of the individual panelist's ratings. Subsequently, the data obtained from the olfactory tests were evaluated statistically by a Friedmann-Test for overall difference between the samples followed by a pairwise comparison to identify significant differences among individual samples.

Row | Compound | Malodor (malodor intensity)
1 | CC1CCC(C(C)C)C(OC(=O)C(C)O)C1 (stereo not drawn) [C3, menthyl lactate] | 4.3
2 | CC1CCC(C(C)C)C2(C1)OCC(CO)O2 (stereo not drawn) [C4, menthone glycerin acetal] | 4.4
3 | CC(=O)OC1CC(C)CCC1C(C)C (stereo not drawn) [c2, menthyl acetate] | 4.4
